Where a name gives a salt, the structure may show the parent alone.
Assay type: physicochemical
Procedure: The amorphous atorvastatin calcium was loaded into 20 ml glass vials (approximately 1 g per vial), and heated at 100±5° C. for 1, 6, and 18 hours in an oven. After heating, the powder was transferred from the vials to 15 ml amber screw-cap bottles, and set-up on stability at 50° C./20% RH. In addition, unannealed amorphous atorvastatin calcium, which was loaded in 15 ml amber screw-cap bottles, was placed on stability as a control.
The annealed amorphous atorvastatin calcium was analyzed for impurities and atorvastatin degradation products using HPLC, by evaluating the ratio of peak integration compared to the total integrated peak areas. […] The material was analyzed by HPLC (Zorbax SB C8 column, 25.0 cm×4.6 mm, HPLC: Hewlett Packard 1100 series, 20 μl injection volume, flow of 1.5 mL/min). […]
Stability data obtained for three annealed samples and the control sample are graphically illustrated in FIGS. 1 to 4. […] In order to express stabilization by annealing in a more quantitative term, relative degradation rate constants, krel, were determined from the data presented in FIGS. 1 to 4. The krel were calculated using Eq. 1: krel=(k/k0)*100% Eq. 1 where k is the zero order rate constant for annealed samples, and k0 is the zero order rate constant for the control sample; k and k0 were determined from the data presented in FIGS. 1 to 4.

With `CC(C)c1c(C(=O)Nc2ccccc2)c(-c2ccccc2)c(-c2ccc(F)cc2)n1CC[C@@H](O)C[C@@H](O)CC(=O)O` (relative stereo) [amorphous atorvastatin calcium, [R—(R*,R*)]-2-(4-fluorophenyl)-β,δ-dihydroxy-5-(1-methylethyl)-3-phenyl-4-[(phenylamino)carbonyl]-1H-pyrrole-1-heptanoic acid calcium salt (2:1) trihydrate] the “Relative degradation rate for total degradation products, less than in the control” value was 34%.

From patent publication US9428455B2, “Process for annealing amorphous atorvastatin” (Pfizer Inc., priority 2005, dated 2016)
